Source: US20260248157A1, “COMPOSITIONS FOR REDUCING METHANE EMISSION” (MOOTRAL INNOVATIONS LIMITED, priority 2022, published 2026)
Like-named read-outs stand apart in the source and are kept apart here.

Columns and labels:
rumen fluid = assay: In vitro rumen fluid fermentation assay (Gas Test), methane by gas chromatography; format: cell-based, cows; conditions: for Synergistic effect in methane inhibition: combined with iodoform
Procedure: Various samples of single species, extracts, two-species combinations, and three-species combinations were assessed for their potential to inhibit methane production. This evaluation was carried out using in vitro fermentation assays known as Gas Tests. In each Gas Test, 250 mg of total meal ration (TMR) comprising 30% grass, 30% corn, and 40% complete feed was introduced into 100 ml serum vials as the substrate for the fermentation process. Rumen fluid, obtained from fistulated cows at the University of Reading, was mixed with degassed reaction buffer (1.6 L) and supplemented with Na2S (82 ml). Subsequently, 30 ml of the rumen fluid/buffer mixture was added to each serum vial.
The test substances were dissolved in 100% ethanol, and 100 μl of each test substance was added to the serum vials containing the rumen fluid/buffer mixture. All test substances and controls were examined in triplicate for each experiment. Once the test substances and controls were added, the vials were sealed with butyl rubber stoppers and aluminium crimps, then incubated at 39° C. for 24 hours. Following incubation, gas samples were collected from both the control and test vials, and methane levels were determined using gas chromatography.
For each test compound, the “percentage inhibition of methane produced” was calculated using the following formula: […]
The test substances underwent evaluation in three independent Gas Tests, and an average percentage inhibition was calculated for each substance.
Synergy between substances was determined using the Bliss Independence Model using the following equation: […]
Where IAB is the predicted percentage methane inhibition of both substances together and IA and IB are the observed percentage methane inhibitions of the individual substances. The predicted percentage methane inhibition of both substances (IAB) and the observed percent methane inhibition of both substances (Iob) are used to calculate the Combination index (Ci) as follows:
If the Ci<1 then the two substances are synergistic.
Synergy between substances was determined using the following calculation:
Where IABC is the predicted percentage methane inhibition of the three substances together and IA, IB and IC are the observed percentage methane inhibitions of the individual substances.
The predicted percentage methane inhibition of the three substances (IABC) and the observed percent methane inhibition of the combination of the three substances (Iob) are used to calculate the Combination index (Ci) as follows: […]

[1] = test system: Methanococcus maripaludis; assay: Inhibition of methane production by Methanococcus maripaludis culture (pressure drop after 24 h); format: cell-based; conditions: for Inhibition of methane production by bromoform on its own: bromoform alone at 0.12 μM (very low concentration); for Fold increase of Compound X combined with bromoform as compared to Compound X alone: bromoform 0.12 μM
Procedure: For this experiment, bromoform was prepped at 100 mM by adding 8.75 μl bromoform to 991 μl DMSO. This was diluted 10× to generate a 10 mM solution and further diluted to generate 0.12 mM stock solutions. Compound X stock solutions were prepared in DMSO (except for tannic acid, which was diluted in deionized water), to achieve the desired stock solutions required for testing. The experiment was set up by adding 5 ml of M141 medium (https://www.dsmz.de/microorganisms/medium/pdf/DSMZ_Medium141.pdf) to a screw cap Hungate tube followed by the addition of 5 μl Compound X and/or 5 μl bromoform or 5/10 μl DMSO as follows: • Tube 1: DMSO (10 μl) • Tube 2: Bromoform (5 μl, 0.120 mM) (120 nM final)+5 μl DMSO • Tube 3: Compound X (5 μl stock solution)+5 μl DMSO • Tube 4: Bromoform (5 μl 0.120 mM) (120 nM final)+Compound X (5 μl stock solution)
The concentration of Bromoform was fixed at 0.12 μM.
After the addition of the test substances, 500 μl of an overnight M. maripaludis culture was added to each reaction tube. Each tube was gassed with 80% H2/20% CO2 to 240 kPa and incubated at 37° C. for 24 h.
After the 24 h incubation the pressure inside the tube was measured using a manometer. Given that 5 moles of H2/CO2 are consumed to generate 1 mole of CH4 the drop in pressure observed was used to calculate the amount of methane by the control and test reactions from which a percent inhibition was calculated.
Table 1 below summarises the range of concentrations and the fold increase in inhibition of Compound X when tested with bromoform relative to the level of inhibition for Compound X when tested alone.

[2] = Bos taurus, 24 h, read-out: Average of observed methane inhibition (%)
[3] = Bos taurus, sole compound, 25 μM, 24 h, three Gas Tests, read-out: Average of observed methane inhibition (%)

SMILES: BrC(Br)Br [Bromoform, bromoform]
- inhibition at 0.1 µM (rumen fluid; [2]): 1.3%
- inhibition at 1 µM (rumen fluid; [2]): 92.4%
- Inhibition of methane production by bromoform on its own [1]: too low to inhibit methanogen on its own
- Inhibition of methane production by bromoform on its own ([1]; listed as bromoform): does not reduce or inhibit methane production

SMILES: C=CCSSCC=C [Diallyl disulfide, diallyl disulfide]
- inhibition at 25 µM (rumen fluid; [2]): 5%
- Methane inhibition in combination with Bromoform (%) ([1]; Compound X 15.6 μM-250 μM (range tested) + bromoform 0.12 μM, 24 h): 88.8%
- Fold increase of Compound X combined with bromoform as compared to Compound X alone ([1]; Compound X 15.6 μM-250 μM (range tested)): 88.8 fold
- inhibition at 15.6 µM ([1]; Methanococcus maripaludis, 24 h, read-out: Methane inhibition of Compound X as a sole compound (%)): 1%

SMILES: C=CCSSSCC=C [Diallyl trisulfide, diallyl trisulfide]
- inhibition at 25 µM (rumen fluid; [3]): 11%
- Synergistic effect in methane inhibition (rumen fluid): synergistic effects were observed
- Methane inhibition in combination with Bromoform (%) ([1]; Compound X 125 μM + bromoform 0.12 μM, 24 h): 27.1%
- Fold increase of Compound X combined with bromoform as compared to Compound X alone ([1]; Compound X 125 μM): 27.1 fold
- inhibition at 125 µM ([1]; Methanococcus maripaludis, Compound X 125 μM alone, 24 h, read-out: Methane inhibition of Compound X as a sole compound (%)): 1%

SMILES: BrCBr [Dibromomethane, dibromomethane]
- inhibition at 0.5 µM (rumen fluid; [2]): 14.5%
- inhibition at 10 µM (rumen fluid; [2]): 99%
- Synergistic effect in methane inhibition (rumen fluid): synergistic effects were observed

SMILES: CCCSSCCC [Dipropyl disulfide, dipropyl disulfide]
- inhibition at 30 µM (rumen fluid; Bos taurus, sole compound, 30 μM, 24 h, three Gas Tests, read-out: Average of observed methane inhibition (%)): 3%
- Synergistic effect in methane inhibition (rumen fluid): synergistic effects were observed
- Methane inhibition in combination with Bromoform (%) ([1]; Compound X 1 mM + bromoform 0.12 μM, 24 h): 43.5%
- Fold increase of Compound X combined with bromoform as compared to Compound X alone ([1]; Compound X 1 mM): 1.57 fold
- inhibition at 1000 µM ([1]; Methanococcus maripaludis, Compound X 1 mM alone, 24 h, read-out: Methane inhibition of Compound X as a sole compound (%)): 27.7%

SMILES: IC(I)I [Iodoform, iodoform]
- inhibition at 2 µM (rumen fluid; Bos taurus, sole compound, 2 μM, 24 h, three Gas Tests, read-out: Average of observed methane inhibition (%)): 40.8%
- inhibition at 10 µM (rumen fluid; Bos taurus, sole compound, 10 μM, 24 h, three Gas Tests, read-out: Average of observed methane inhibition (%)): 98.3%

SMILES: O=C1C[C@@H](c2ccc(O)cc2)Oc2cc(O)cc(O)c21 [Naringenin]
- inhibition at 100 µM (rumen fluid; Bos taurus, sole compound, 100 μM, 24 h, three Gas Tests, read-out: Average of observed methane inhibition (%)): 10%
- Synergistic effect in methane inhibition (rumen fluid): synergistic effects were observed
- Methane inhibition in combination with Bromoform (%) ([1]; Compound X 100 μM + bromoform 0.12 μM, 24 h): 90.3%
- Fold increase of Compound X combined with bromoform as compared to Compound X alone ([1]; Compound X 100 μM): 90.3 fold
- inhibition at 100 µM ([1]; Methanococcus maripaludis, Compound X 100 μM alone, 24 h, read-out: Methane inhibition of Compound X as a sole compound (%)): 1%

SMILES: CCCCCCC(C=O)=Cc1ccccc1 [α-Hexylcinnamaldehyde]
- inhibition at 25 µM (rumen fluid; [3]): 8%
- Synergistic effect in methane inhibition (rumen fluid): synergistic effects were observed
- Methane inhibition in combination with Bromoform (%) ([1]; Compound X 31.25 μM + bromoform 0.12 μM, 24 h): 97.2%
- Fold increase of Compound X combined with bromoform as compared to Compound X alone ([1]; Compound X 31.25 μM): 97.2 fold
- inhibition at 31.25 µM ([1]; Methanococcus maripaludis, Compound X 31.25 μM alone, 24 h, read-out: Methane inhibition of Compound X as a sole compound (%)): 1%
